From US11999786B2, “Anti-CD48 antibodies, antibody drug conjugates, and uses thereof” (Novartis AG, priority 2020, dated 2024) come the findings set out here.

A word on the IC50: it is the concentration that inhibits the measured activity by half. A high value points to lower potency.

Non-standard residues stand in square brackets, D forms with d. Residues, ends and D or L forms follow the SMILES beside them. *: point of attachment. Dolaproine = CO[C@@H]([C@@H]1CCCN1)[C@@H](C)C(=O)O; Dil = CC[C@H](C)[C@H](NC)[C@@H](CC(=O)O)OC; X1 = C[C@@H](N*)[C@@H](O)c1ccccc1; NMeV = CN[C@H](C(=O)O)C(C)C

Common to all, as to assay type: cell-based
For test [1], the system named is KMS-27, NCI-H929 and KMS-21-BM cancer cell lines. Briefly: Internalization and cell proliferation assay, statements across the three cancer cell lines. As to conditions: range across the three cell lines; dosed directly, 5 days, CellTiter-Glo. As for the experimental part: (§1) The internalization activity of CD48 antibodies were tested against three endogenous cancer cell lines: KMS-27: JCRB No. JCRB1188 cultured in RPMI-1640+10% FBS; NCI-H929: ATCC No. CRL-9068 cultured in RPMI-1640+10% FBS+0.05 mM 2-mercaptoethanol; and KMS-21-BM: JCRB No. JCRB1185 cultured in RPMI-1640+10% FBS.
CD48 antibodies were synthesized and expressed generally as described in Example 5. Cell lines were cultured in media that is optimal for their growth at 5% CO2, 37° C. in a tissue culture incubator. Prior to seeding for the proliferation assay, the cells were split at least 2 days before the assay to ensure optimal growth density. On the day of seeding, cell viability and cell density were determined using a cell counter (Vi-Cell XR Cell Viability Analyzer, Beckman Coulter). Cells with higher than 85% viability were seeded in white clear bottom 384-well TC treated plates (Corning cat. #3765). […] Plates were incubated at 5% CO2, 37° C. for 5 days in a tissue culture incubator, after which cell viability was assessed through the addition of 25 μL of CellTiter Glo® (Promega, cat #G7573), a reagent which lyses cells and measures total adenosine triphosphate (ATP) content. Plates were incubated at room temperature for 10 minutes to stabilize luminescent signals prior to reading using a luminescence reader (EnVision Multilabel Plate Reader, PerkinElmer). […]
Background: ATP-based viability assays read luminescence as a measure of living cells.

Test [2] relates to NCI-H929. The test can be described thus: Internalization and cell proliferation assay (CellTiter-Glo, with secondary anti-human Fc-VC-MMAE ADC). As for the experimental part:
as §1
(§2) CD48 antibodies were synthesized and expressed generally as described in Example 5. Cell lines were cultured in media that is optimal for their growth at 5% CO2, 37° C. in a tissue culture incubator. Prior to seeding for the proliferation assay, the cells were split at least 2 days before the assay to ensure optimal growth density. On the day of seeding, cell viability and cell density were determined using a cell counter (Vi-Cell XR Cell Viability Analyzer, Beckman Coulter). Cells with higher than 85% viability were seeded in white clear bottom 384-well TC treated plates (Corning cat. #3765). Cells were seeded at a density of 1,000 cells per well in 40 μL of standard growth media. Plates were incubated at 5% CO2, 37° C. overnight in a tissue culture incubator. The next day free MMAE payload, a CD48A-CysMab-VC-MMAE ADC (synthesis described in Example 5), CD48 antibodies, and a non-targeting isotype antibody were prepared at 10× in standard growth media. The MMAE free payload and CD48A-CysMab-VC-MMAE ADC were added to the cells resulting in final concentrations of 0.007-150 nM and a final volume of 50 μL per well. The prepared antibody treatments, including CD48 IgGs and a non-targeting isotype antibody, were then added to the cells resulting in final concentrations of 0.001-20 nM and a final volume of 45 μL per well. An anti-human Fc-VC-MMAE ADC (DAR2.0) was prepared at 10× in standard growth media. The prepared ADC was then added to the cells resulting in a final concentration of 60 nM and a final volume of 50 μL per well. Each drug concentration was tested in quadruplets. Plates were incubated at 5% CO2, 37° C. for 5 days in a tissue culture incubator, after which cell viability was assessed through the addition of 25 μL of CellTiter Glo® (Promega, cat #G7573), a reagent which lyses cells and measures total adenosine triphosphate (ATP) content. Plates were incubated at room temperature for 10 minutes to stabilize luminescent signals prior to reading using a luminescence reader (EnVision Multilabel Plate Reader, PerkinElmer). To evaluate the effect of the drug treatments, luminescent counts from wells containing untreated cells (100% viability) were used to normalize treated samples. A variable slope model was applied to fit a nonlinear regression curve to the data in GraphPad PRISM version 7.02 software. IC50 and Amax values were extrapolated from the resultant curves.
(§3) The dose response curves of representative cancer cell lines are shown in FIG. 2A (KMS-27), FIG. 2B (NCI-H929), and FIG. 2C (KMS-21-BM).

Test [3] concerns KMS-21-BM. The test is described as above. As for the experimental part: as §1, §2, §3
The subject of test [4] is KMS-27. The test is described as above. To be noted: KMS-27, CellTiter-Glo. As for the experimental part: as §1, §2, §3

Regarding `CC[C@H](C)[C@@H]([C@@H](CC(=O)N1CCC[C@H]1[C@H](OC)[C@@H](C)C(=O)N[C@H](C)[C@@H](O)c1ccccc1)OC)N(C)C(=O)[C@@H](NC(=O)[C@@H](NC)C(C)C)C(C)C` [MMAE] (H-[NMeV]V[Dil][Dolaproine]-X1), the IC50 in test [1] is 0.021 to 0.116 nM; in test [2] it was 0.116 nM; in test [3], 0.024 nM; in test [4], 0.021 nM. Moreover, the “Span (Amax)” value is 88.5 in test [2], 72.9 in test [3] and 83.9 in test [4].
